# Measured values reported in patent US20240003908A1, “POLYOL BIOMARKERS FOR CONGENITAL DISORDERS OF GLYCOSYLATION” (Mayo Foundation for Medical Education and Research, priority 2020, published 2024).
# Marks after values point to notes of the source that are not given here.
# Columns and labels:
# [1] = test system: urine mannitol; experiment: Urine mannitol (GC/MS) in a PMM2-CDG pediatric patient on oral epalrestat therapy; type: in vivo, human; conditions: for urine mannitol level: before therapy 648.6, controls <20
# Method: Clinical studies: Epalrestat was used as an N of 1 study for a single pediatric patient with PMM2-CDG. An open label, single patient compassionate use study designed to assess the safety and tolerability of oral epalrestat therapy in a child with PMM2-CDG. The patient received […]. Concomitant medications, vital signs, blood draw for serum chemistry and hematology, and blood levels of epalrestat were collected at each study visit during a 6 month period to evaluate the safety and tolerability of oral epalrestat therapy in a child with PMM2-CDG. The Nijmegen Pediatric CDG Rating Scale (NPCRS) assessment was administered at the start of the study and at 6 months. Urine polyols were collected at the start, at 4 months, and at 6 months of therapy, and were measured as described elsewhere (Jansen et al., Clin Chim Acta 1986, 157:277-294). Briefly, 200 μl urine specimens were spiked with a mixture of labeled internal standards, allowed to equilibrate, and evaporated. […] Specimens were analyzed by GC/MS, selected ion monitoring using ammonia chemical ionization and a stable isotope dilution method. In general, the following protocol was used: • Creatinine (CR) values (mg/dL) were determined for all samples. • Multiplication factors were calculated for each patient sample. • 100 μL of Polyol QC Mix for the QC Standard and 100 μL water were pipetted into a labeled 16×100 screw-cap glass tube. • 200 μL each of low control and high control were pipetted into corresponding labeled 16×100 mm screw-cap glass tubes. • 200 μL of each patient sample was pipetted into a corresponding labeled 16×100 mm screw cap glass tube. […]
# Urine sorbitol and mannitol levels also were quantified using similar processing of samples and GC/MS settings, monitoring ions specific for sorbitol and mannitol for peak area ratio calculations.
# Patient assessment: Prior to the first dose of epalrestat and at 1, 2, 3, 6, 8, 9, 12 months during treatment, concomitant medications and vital signs were recorded and the patient was evaluated using the NPCRS. […]
# [2] = test system: PMM enzyme; experiment: PMM enzyme activity in PMM2-CDG patient fibroblasts treated with epalrestat (spectrophotometric); type: cell-based, human; conditions: for Fold change 5 μM epalrestat (PMM enzyme activity) / Fold change 10 μM epalrestat (PMM enzyme activity) / Fold change 20 μM epalrestat (PMM enzyme activity): 24 hours, baseline = 1; for Highest fold change (PMM enzyme activity): at best dose; for Best dose: of 5, 10, 20 μM
# Method: Effect of epalrestat on […] enzyme in vitro: Patient-derived and control fibroblasts (GM5381, GM5400; GM5757, GM00038, GM8680, GM01863, GM8400; Coriell Institute, Camden, NJ) were cultured in Minimum Essential Media (MEM; Gibco, Carlsbad, CA; 1 g/L glucose) supplemented with 10% Fetal Bovine Serum (FBS; Gibco), […] (P/S) and maintained in an incubator at 37° C., 5% CO2 in the presence and absence of epalrestat for 24 hours (Iyer et al., Disease Models & Mechanisms 12:11, 2019). Cells were cultured and harvested by trypsinization with 0.05% Trypsin-EDTA (Gibco). PMM and phosphomannose isomerase (MPI) activity were assayed by spectrophotometric measurements (Van Schaftingen and Jaeken, FEBS Lett 377:318-320, 1995). The effects of epalrestat (5 μM, 10 μM, or 20 μM) on PMM-deficient fibroblasts of 11 patients (P1-P6, P8, P10, P17, P19, P24) were evaluated.
smiles,measurement,setting,value
CC(/C=C1\SC(=S)N(CC(=O)O)C1=O)=C\c1ccccc1 [epalrestat],urine mannitol level,[1]; 6 months of epalrestat therapy,25.09 mmol/mol creatinine
same,urine mannitol level,[1]; after 3 months of epalrestat therapy,37.32 mmol/mol creatinine
same,urinary mannitol level,"[1]; at 4 months of epalrestat treatment, pretreatment 648.6, control less than 10",37.32 mmol/mol creatinine
same,patient fibroblasts that responded,"[2]; 10 μM epalrestat, 8/10",80%
same,increase in PMM enzyme activity,"[2]; fibroblasts of P1, 5 μM epalrestat",43%
same,increase in PMM enzyme activity,"[2]; fibroblasts of P2, 10 μM epalrestat",33%
same,increase in PMM enzyme activity,"[2]; fibroblasts of P3, 10 μM epalrestat",35%
same,increase in PMM enzyme activity,"[2]; fibroblasts of P4, 20 μM epalrestat",50%
same,increase in PMM enzyme activity,"[2]; fibroblasts of P5, 5 μM epalrestat",35%
same,increase in PMM enzyme activity,"[2]; fibroblasts of P8, 10 μM epalrestat",16%
same,increase in PMM enzyme activity,"[2]; fibroblasts of P10, 5 μM epalrestat",22%
same,increase in PMM enzyme activity,"[2]; fibroblasts of P17, 20 μM epalrestat",10%
same,increase in PMM enzyme activity,"[2]; fibroblasts of P19, 20 μM epalrestat",20%
same,increase in PMM enzyme activity,"[2]; fibroblasts of P24, 10 μM epalrestat",36%
same,Fold change 5 μM epalrestat (PMM enzyme activity),"[2]; fibroblasts of subject P1, 5 μM",1.43
same,Fold change 10 μM epalrestat (PMM enzyme activity),[2]; fibroblasts of subject P1,1.2
same,Fold change 20 μM epalrestat (PMM enzyme activity),[2]; fibroblasts of subject P1,1.2
same,Highest fold change (PMM enzyme activity),[2]; fibroblasts of subject P1,1.43*
same,Best dose,[2]; fibroblasts of subject P1,5 µM
same,Fold change 5 μM epalrestat (PMM enzyme activity),"[2]; fibroblasts of subject P2, 5 μM",1.01
same,Fold change 10 μM epalrestat (PMM enzyme activity),[2]; fibroblasts of subject P2,1.33
same,Fold change 20 μM epalrestat (PMM enzyme activity),[2]; fibroblasts of subject P2,0.7
same,Highest fold change (PMM enzyme activity),[2]; fibroblasts of subject P2,1.33
same,Best dose,[2]; fibroblasts of subject P2,10 µM
same,Fold change 5 μM epalrestat (PMM enzyme activity),"[2]; fibroblasts of subject P3, 5 μM",0.86
same,Fold change 10 μM epalrestat (PMM enzyme activity),[2]; fibroblasts of subject P3,1.35
same,Fold change 20 μM epalrestat (PMM enzyme activity),[2]; fibroblasts of subject P3,0.9
same,Highest fold change (PMM enzyme activity),[2]; fibroblasts of subject P3,1.35
same,Best dose,[2]; fibroblasts of subject P3,10 µM
same,Fold change 5 μM epalrestat (PMM enzyme activity),"[2]; fibroblasts of subject P4, 5 μM",1.26
same,Fold change 10 μM epalrestat (PMM enzyme activity),[2]; fibroblasts of subject P4,1.36
same,Fold change 20 μM epalrestat (PMM enzyme activity),[2]; fibroblasts of subject P4,1.5
same,Highest fold change (PMM enzyme activity),[2]; fibroblasts of subject P4,1.36
same,Best dose,[2]; fibroblasts of subject P4,10 µM
same,Fold change 5 μM epalrestat (PMM enzyme activity),"[2]; fibroblasts of subject P5, 5 μM",1.35
same,Fold change 10 μM epalrestat (PMM enzyme activity),[2]; fibroblasts of subject P5,0.93
same,Fold change 20 μM epalrestat (PMM enzyme activity),[2]; fibroblasts of subject P5,0.9
same,Highest fold change (PMM enzyme activity),[2]; fibroblasts of subject P5,1.35
same,Best dose,[2]; fibroblasts of subject P5,5 µM
same,Fold change 5 μM epalrestat (PMM enzyme activity),"[2]; fibroblasts of subject P6, 5 μM",0.98
same,Fold change 10 μM epalrestat (PMM enzyme activity),[2]; fibroblasts of subject P6,0.97
same,Fold change 20 μM epalrestat (PMM enzyme activity),[2]; fibroblasts of subject P6,0.6
same,Fold change 5 μM epalrestat (PMM enzyme activity),"[2]; fibroblasts of subject P8, 5 μM",1.07
same,Fold change 10 μM epalrestat (PMM enzyme activity),[2]; fibroblasts of subject P8,1.16
same,Fold change 20 μM epalrestat (PMM enzyme activity),[2]; fibroblasts of subject P8,1.1
same,Highest fold change (PMM enzyme activity),[2]; fibroblasts of subject P8,1.16
same,Best dose,[2]; fibroblasts of subject P8,10 µM
same,Fold change 5 μM epalrestat (PMM enzyme activity),"[2]; fibroblasts of subject P10, 5 μM",1.22
same,Fold change 10 μM epalrestat (PMM enzyme activity),[2]; fibroblasts of subject P10,1.16
same,Fold change 20 μM epalrestat (PMM enzyme activity),[2]; fibroblasts of subject P10,1.2
same,Highest fold change (PMM enzyme activity),[2]; fibroblasts of subject P10,1.22
same,Best dose,[2]; fibroblasts of subject P10,5 µM
same,Fold change 5 μM epalrestat (PMM enzyme activity),"[2]; fibroblasts of subject P17, 5 μM",0.9
same,Fold change 10 μM epalrestat (PMM enzyme activity),[2]; fibroblasts of subject P17,0.75
same,Fold change 20 μM epalrestat (PMM enzyme activity),[2]; fibroblasts of subject P17,1.1
same,Highest fold change (PMM enzyme activity),[2]; fibroblasts of subject P17,1.1
same,Best dose,[2]; fibroblasts of subject P17,20 µM
same,Fold change 5 μM epalrestat (PMM enzyme activity),"[2]; fibroblasts of subject P19, 5 μM",0.84
same,Fold change 10 μM epalrestat (PMM enzyme activity),[2]; fibroblasts of subject P19,1.1
same,Fold change 20 μM epalrestat (PMM enzyme activity),[2]; fibroblasts of subject P19,1.2
same,Highest fold change (PMM enzyme activity),[2]; fibroblasts of subject P19,1.2
same,Best dose,[2]; fibroblasts of subject P19,20 µM
same,Fold change 5 μM epalrestat (PMM enzyme activity),"[2]; fibroblasts of subject P24, 5 μM",0.78
same,Fold change 10 μM epalrestat (PMM enzyme activity),[2]; fibroblasts of subject P24,1.36
same,Fold change 20 μM epalrestat (PMM enzyme activity),[2]; fibroblasts of subject P24,0.9
same,Highest fold change (PMM enzyme activity),[2]; fibroblasts of subject P24,1.36
same,Best dose,[2]; fibroblasts of subject P24,10 µM
same,increase in PMM enzyme activity,"[2]; nine out of ten patients, 5 μM, 10 μM or 20 μM epalrestat",≥ 10%
same,maximal increase in PMM activity,"[2]; patient fibroblasts, with at least one of 5, 10, 20 μM",≤ 50%
